Assay results: PMC6199744, “Development of Chemical Proteomics for the Folateome and Analysis of the Kinetoplastid Folateome” (ACS Infectious Diseases, 2018)
Like-named read-outs stand apart in the source and are kept apart here.

System: T. brucei lysate proteins
Assay type: binding, Trypanosoma brucei
Details: vehicle control = 1

## Nc1nc2c(c(=O)[nH]1)N(C=O)C(CNc1ccc(C(=O)N[C@@H](CCC(=O)O)C(=O)O)cc1)CN2 (stereo partly drawn) [LEU, leucovorin]
Protein TB427.06.3630 SPHINGOSINE 1-PHOSPHATE LYASE, PUTATIVE
  fold change: 0.94
Protein TB427.06.3670 PAR[…] COMPONENT, PUTATIVE
  fold change: 0.77
Protein TB427.06.4480 VALYL-TRNA SYNTHETASE, PUTATIVE
  fold change vs vehicle control: 1.07
Protein TB427.06.4740 IMPORTIN-ALPHA RE-EXPORTER PROTEIN, PUTATIVE
  fold change: 1.22
Protein TB427.06.700 ALANYL-TRNA SYNTHETASE, PUTATIVE
  fold change: 0.94
Protein TB427.07.1300 PROTEIN DISULFIDE ISOMERASE, PUTATIVE
  fold change vs vehicle control: 1.76
Protein TB427.07.1420 HY[…], CONSERVED
  fold change: 0.96
Protein TB427.07.2340 40S RIBOSOMAL PROTEIN S15, PUTATIVE
  fold change: 0.96
Protein TB427.07.3160 DYNEIN HEAVY CHAIN, CYTOSOLIC, PUTATIVE
  fold change vs vehicle control: 0.86
Protein TB427.07.3530 HY[…], CONSERVED
  fold change: 0.87
Protein TB427.07.4180 FATTY ACID ELONGASE, PUTATIVE
  fold change: 0.95
Protein TB427.07.4970 GLUTAMINE SYNTHETASE, PUTATIVE
  fold change: 0.91
Protein TB427.07.7500 THYMINE-7-HYDROXYLASE, PUTATIVE
  fold change vs vehicle control: 0.97
Protein TB427.08.2060 HY[…], CONSERVED
  fold change: 0.77
Protein TB427.08.3490 HY[…], CONSERVED
  fold change: 1
Protein TB427.08.3520 HY[…], CONSERVED
  fold change: 0.94
Protein TB427.08.3870 HY[…], CONSERVED
  fold change: 1.66
Protein TB427.08.5460 FLAGELLAR CALCIUM-BINDING PROTEIN
  fold change: 1.21
Protein TB427.08.5760 HY[…], CONSERVED
  fold change: 0.93
Protein TB427.08.6390 LYSOPHOSPHOLIPASE, PUTATIVE
  fold change: 1.26
Protein TB427.08.650 CATION-TR[…], PUTATIVE
  fold change: 0.8
Protein TB427.10.10020 HY[…], CONSERVED
  fold change: 0.93
Protein TB427.10.10350 PROTEIN KINASE, PUTATIVE
  fold change: 0.95
Protein TB427.10.10360 MICROTUBULE-[…], PUTATIVE
  fold change: 0.82
Protein TB427.10.1060 T-COMPLEX PROTEIN 1, DELTA SUBUNIT, PUTATIVE
  fold change: 1.18
Protein TB427.10.10610 PROTEIN TYROSINE PHOSPHATASE, PUTATIVE
  fold change vs vehicle control: 2.13
Protein TB427.10.1100 60S RIBOSOMAL PROTEIN L9, PUTATIVE
  fold change vs vehicle control: 1.1
Protein TB427.10.11760 PUMILIO/PUF RNA BINDING PROTEIN 6
  fold change vs vehicle control: 0.98
Protein TB427.10.12710 HEAT SHOCK PROTEIN, PUTATIVE
  fold change: 2.54
Protein TB427.10.12820 HY[…], CONSERVED
  fold change vs vehicle control: 1.13
Protein TB427.10.14140 PYRUVATE KINASE 1
  fold change: 1.34
Protein TB427.10.14470 INTR[…] PROTEIN IFT140, PUTATIVE
  fold change vs vehicle control: 1.07
Protein TB427.10.14890 C-TERMINAL MOTOR KINESIN, PUTATIVE
  fold change: 1.36
Protein TB427.10.2020 HEXOKINASE
  fold change: 1.68
Protein TB427.10.2290 CHAPERONE PROTEIN DNAJ, PUTATIVE
  fold change: 0.89
Protein TB427.10.2350 PYRUVATE DEH[…] E3 BINDING PROTEIN, PUTATIVE
  fold change: 0.89
Protein TB427.10.4610 […]-MANNOSE SYNTHASE, PUTATIVE
  fold change: 0.94
Protein TB427.10.5810 HY[…], CONSERVED
  fold change vs vehicle control: 2.19
Protein TB427.10.5840 T[…] 1-BETA, PUTATIVE
  fold change: 1.21
Protein TB427.10.5850 HY[…], CONSERVED
  fold change: 0.84
Protein TB427.10.6150 […]/BEIGE PROTEIN, PUTATIVE
  fold change: 0.73
Protein TB427.10.6310 MAJOR VAULT PROTEIN, PUTATIVE
  fold change: 0.82
Protein TB427.10.730 ATP SYNTHASE, PUTATIVE
  fold change: 0.81
Protein TB427.10.7410 SUCCINYL-COA LIGASE GDP-FORMING] BETA-CHAIN, PUTATIVE
  fold change vs vehicle control: 1.13
Protein TB427.10.7630 HY[…], CONSERVED
  fold change vs vehicle control: 1.07
Protein TB427.10.8230 PROTEIN DISULFIDE ISOMERASE
  fold change vs vehicle control: 2.42
Protein TB427.10.8910 HY[…], CONSERVED
  fold change: 0.93
Protein TB927.10.12700 PYRUVATE DEHYDROGENASE E1 ALPHA SUBUNIT, PUTATIVE
  fold change vs vehicle control: 0.9
Protein TB927.10.12740 HY[…], CONSERVED,ZINC FINGER PROTEIN FAMILY MEMEBER, PUTATIVE
  fold change: 1.1
Protein TB927.10.12840 MIT[…] PROTEIN, PUTATIVE
  fold change: 0.92
Protein TB927.10.13290 ETHANOLAMINE PHOSPHOTRANSFERASE (EPT)
  fold change vs vehicle control: 0.95
Protein TB927.10.14800 PROTEIN KINASE, PUTATIVE
  fold change vs vehicle control: 1.13
Protein TB927.10.1550 […]-ATP-ASE SUBUNIT 5
  fold change: 0.94
Protein TB927.10.2890 ENOLASE
  fold change vs vehicle control: 1.93
Protein TB927.10.2980 […]-ATPASE SUBUNIT 11
  fold change: 0.91
Protein TB927.10.4570 […] 2
  fold change vs vehicle control: 1.87
Protein TB927.10.4690 DYNEIN LIGHT CHAIN, PUTATIVE
  fold change: 0.96
Protein TB927.10.5370 40S RIBOSOMAL PROTEIN S10, PUTATIVE
  fold change: 1
Protein TB927.10.540 ATP-DEPENDENT DEAD/H RNA HELICASE, PUTATIVE
  fold change vs vehicle control: 1.4
Protein TB927.10.5500 HY[…], CONSERVED
  fold change: 0.99
Protein TB927.10.560 40S RIBOSOMAL PROTEINS S11, PUTATIVE
  fold change vs vehicle control: 1.35
Protein TB927.10.6050 CLATHRIN HEAVY CHAIN
  fold change: 0.82
Protein TB927.10.8030 HY[…], CONSERVED
  fold change vs vehicle control: 0.97
Protein TB927.10.8160 HY[…], CONSERVED
  fold change vs vehicle control: 0.94
Protein TB927.2.100 RETRO[…] SPOT (RHS) PROTEIN, PUTATIVE,RETRO[…] SPOT PROTEIN 1 (RHS1), PUTATIVE
  fold change: 1.21
Protein TB927.2.2440 […]-ATPASE SUBUNIT 6
  fold change vs vehicle control: 1.21
Protein TB927.2.3800 MRNA […], PUTATIVE
  fold change: 0.96
Protein TB927.3.1240 PROTEIN PHOSPHATASE 2A, PUTATIVE
  fold change: 0.82
Protein TB927.3.1840 3-OXO-5-ALPHA-STEROID 4-DEHYDROGENASE, PUTATIVE
  fold change: 0.93
Protein TB927.3.2960 INOSINE-ADENOSINE-GUANOSINE-[…]
  fold change vs vehicle control: 2.01
Protein TB927.3.3190 SERINE/THREONINE-PROTEIN KINASE, PUTATIVE
  fold change: 0.93
Protein TB927.3.3450 ADP-RI[…]-LIKE PROTEIN 3A, PUTATIVE
  fold change vs vehicle control: 2.74
Protein TB927.3.3490 HIGH MOBILITY GROUP PROTEIN, PUTATIVE
  fold change vs vehicle control: 1.29
Protein TB927.3.5120 HY[…], CONSERVED (Ankyrin repeats (3 copies), putative)
  fold change vs vehicle control: 1.41
Protein TB927.3.740 HY[…], CONSERVED
  fold change vs vehicle control: 0.99
Protein TB927.4.2740 HY[…], CONSERVED (p25-alpha, putative)
  fold change vs vehicle control: 2.04
Protein TB927.4.3590 T[…] 1-BETA, PUTATIVE
  fold change: 1.21
Protein TB927.4.3820 HY[…], CONSERVED
  fold change vs vehicle control: 0.99
Protein TB927.5.1630 HY[…], CONSERVED
  fold change: 0.83
Protein TB927.5.4440 DYNEIN LIGHT CHAIN, PUTATIVE
  fold change vs vehicle control: 1.1
Protein TB927.6.2200 HY[…], CONSERVED
  fold change: 0.98
Protein TB927.6.3740 HEAT SHOCK 70 KDA PROTEIN, MIT[…], PUTATIVE
  fold change vs vehicle control: 1.13
Protein TB927.6.4980 40S RIBOSOMAL PROTEIN S14
  fold change: 0.97
Protein TB927.7.1750 60S RIBOSOMAL PROTEIN L7, PUTATIVE
  fold change vs vehicle control: 1.49
Protein TB927.7.4470 HY[…], CONSERVED
  fold change vs vehicle control: 1.31
Protein TB927.7.7430 ATP SYNTHASE ALPHA CHAIN, MIT[…]
  fold change vs vehicle control: 1.2
Protein TB927.8.4330 SMALL GTP-BINDING PROTEIN RAB11
  fold change: 0.97
Protein TB927.8.4770 SMALL GTP-BINDING PROTEIN RAB18
  fold change: 0.93
Protein TB927.8.4810 PROHIBITIN 1
  fold change vs vehicle control: 0.99
Protein TB-292 MEMBRANE ASSOCIATED PROTEIN
  fold change: 0.88
